Results taken from patent US20240398738A1, “MANIPULATION OF THE RETINOIC ACID SIGNALING PATHWAY” (THE REGENTS OF THE UNIVERSITY OF CALIFORNIA, priority 2017, published 2024).

Legend:
[1] = system: RGCs in rd1 retina; experiment: MEA recording of photoswitch (QAQ, BENAQ) photosensitization in rd1 retina; type: in vivo, mouse; conditions: rd1 retina without BMS-493, mean±SEM
Description: (§1) Intravitreal Injections. Before injection, mice were anesthetized with isoflurane (2%) and their pupils were dilated with tropicamide (1%) and phenylephrine (2.5%). Proparacaine (0.5%) was used as a topical analgesic. Genteal was applied under a glass coverslip to keep the cornea lubricated. An incision was made through the sclera below the ora serrata with a 30G needle and ˜1 μl of solution was injected into the vitreous with a blunt-ended 33G Hamilton syringe. After injection, the antibiotic tobramycin (0.3%) was applied to the eye. Final drug concentrations after intravitreal injection were: all-trans retinoic acid (ATRA, 100 nM), liarozole (100 μM), diethylaminobenzaldehyde (DEAB, 20 μM), citral (50 μM), BMS-493 (500 nM), and retinaldehyde (1 μM). The above values correspond to the final concentration in the eye after injecting 1 μl of drug accounting for a 5-fold dilution. An injection of PBS including 1% DMSO was used as vehicle control.
(§2) Multi Electrode Array Recordings. For extracellular recordings, a flat-mounted retina was placed ganglion cell layer down onto a 60-electrode Multi-Electrode Array (MEA 1060-2-BC, Multi-Channel Systems). After mounting the retina, photoswitches were applied for 30 min, followed by a 15 min wash. BENAQ was applied at a concentration of 100 μM and QAQ at 300 μM. A solution containing a mixture of neurotransmitter receptor blockers isolated RGCs from synaptic inputs: (in μM) 10 AP4, 40 DNQX, 30 AP5, 10 SR-95531, 50 TPMPA, 10 strychnine, and 50 tubocurarine. Extracellular spikes were high-pass filtered at 200 Hz and digitized at 20 kHz and were counted when exceeding 4 SD from the mean background voltage signal. Typically, each electrode recorded spikes from one to three individual RGCs. Principal component analysis of the spike waveforms was used for sorting spikes generated by individual cells (Offline Sorter, Plexon). Stimulation light was generated from a mercury arc lamp. Unfiltered broad spectrum light was used for BENAQ-treated retinas. Narrow band optical filters (Chroma) were used to deliver alternating intervals of 380 nm and 500 nm for stimulation of QAQ-treated as described previously (5,12). The Photoswitch Index (5) (PI) was established for individual retinas in light/darkness for treatment with BENAQ or in 380 nm/500 nm light for treatment with QAQ (11,12).
(§3) Injections. Intravitreal injections: Adult mice and rats were intravitreally injected with drugs or viruses. Before injection, animals were anesthetized with isoflurane (2%) and their pupils were dilated with tropicamide (1%) and phenylephrine (2.5%). Proparacaine (0.5%) was used as a topical analgesic. Genteal was applied under a glass coverslip to keep the cornea lubricated. An incision was made through the sclera below the ora serrata with a 30G needle. Solutions were injected into the vitreous with a blunt-ended 33G Hamilton syringe. After injection, the antibiotic tobramycin (0.3%) was applied to the eye. Final drug concentrations (after 5-fold dilution in the vitreous) were: 100 nM all-trans retinoic acid (ATRA), 100 μM liarozole (24), 20 μM diethylaminobenzaldehyde (DEAB) (28,93), 50 μM citral, 500 nM BMS 493 (85), 1 μM retinaldehyde, and vehicle comprising of 1× phosphate buffered saline (PBS) containing 1% dimethyl sulfoxide (DMSO). Intravitreal injections were performed using AAV2 serotype only. WT and rd1 mice were injected with the RAR-reporter virus or the RARDN virus, at age 1-1.5 month-old. […]

[2] = system: RGCs in rd1 retina; experiment: YO-PRO-1 loading assay (dye permeability of RGCs) in rd1 retina after intravitreal injection; type: in vivo, mouse; conditions: for Yo-Pro-1 labeling of rd1-RGCs, result in words: rd1, intravitreal injection, compared to vehicle-injected; for percentage of YO-PRO-1 positive cells (fraction of RGC nuclei labeled): rd1 mice, intravitreal injection, measured 3-7 days after, BMS-493 500 nM, DEAB 20 uM, citral 50 uM, mean±SEM
Description: as §1
(§4) Yo-PRO-1 Loading Assay. After dissection, retinas were cut into thirds and mounted on a windowed nitrocellulose filter paper. Retinas were treated with 200 nM Yo-PRO-1 (Life Technologies) in oxygenated ACSF for 15 minutes, followed by treatment and then treated with nuclear ID (Enzo Life Sciences) at a 1:500 dilution for 3 minutes. ACSF was perfused continuously at 3 ml/min for a period of 5 minutes to wash away excess dye. In experiments employing TNP-ATP (200 μm), the retinas was pretreated with the compound for ten minutes before beginning YO-PRO-1 treatment.
(§5) Image analysis. All image analysis was performed using ImageJ or Fiji software (55,56). Yo-PRO-1 loading assay, ROIs were manually selected using the nuclear-ID channel based upon morphological characteristics. This was performed after computationally flattening the retina by performing a maximum Z projection onto a single plane. Following this, a background subtraction was performed with a rolling radius of 50 pixels. Cells identified as vascular endothelial cells or pericytes were not included in the analysis. This was confirmed using transillumination. A threshold for YO-PRO-1 loading was established by measuring the level of autofluorescence of untreated retinas in each channel and finding a baseline value with +2SD being the threshold for a YO-PRO-1 positive cell. Nuclear-ID was used to count the total number of cells within a field of view. The percentage of cells above the threshold was then calculated for comparison. For analysis of RARE double reporter virus assay, ROIs were manually selected on the RFP channel first and then superimposed to the GFP channel. Single cell values for both RFP and GFP were filtered by using a RFP minimum threshold established in naive unlabeled retinas.
as §3, with “month-old. WT and s334ter rats were injected with the RAR-reporter virus at age 3-4 month-old. Final volume of injections was 1-1.5 μL for mice and 5 μL for rats.” for “month-old.”

[3] = system: RGCs in WT retina; experiment: YO-PRO-1 loading assay (dye permeability of RGCs) in WT retina after intravitreal injection; type: in vivo, mouse; conditions: for percentage of YO-PRO-1 positive cells: intravitreal injection 3-7 days before, ATRA 100 nM, liarozole 100 μM, retinaldehyde 1 μM, DEAB 20 μM; for Yo-Pro-1 labeling of WT-RGCs, result in words: WT retina, substance injected intravitreally alone
Description: as §1, §4, §5
as §3, with “month-old. WT and s334ter rats were injected with the RAR-reporter virus at age 3-4 month-old. Final volume of injections was 1-1.5 μL for mice and 5 μL for rats.” for “month-old.”

[4] = system: gap junctions; conditions: micromolar concentrations are required; cited from earlier work
[5] = system: RGCs in WT retina; experiment: MEA recording of photoswitch (QAQ, BENAQ) photosensitization in WT retina; type: in vivo, mouse
Description: as §1, §2
Injections. Intravitreal injections: Adult mice and rats were intravitreally injected with drugs or viruses. Before injection, animals were anesthetized with isoflurane (2%) and their pupils were dilated with tropicamide (1%) and phenylephrine (2.5%). Proparacaine (0.5%) was used as a topical analgesic. Genteal was applied under a glass coverslip to keep the cornea lubricated. An incision was made through the sclera below the ora serrata with a 30G needle. Solutions were injected into the vitreous with a blunt-ended 33G Hamilton syringe. After injection, the antibiotic tobramycin (0.3%) was applied to the eye. Final drug concentrations (after 5-fold dilution in the vitreous) were: 100 nM all-trans retinoic acid (ATRA), 100 μM liarozole (24), 20 μM diethylaminobenzaldehyde (DEAB) (28,93), 50 μM citral, 500 nM BMS 493 (85), 1 μM retinaldehyde, and vehicle comprising of 1× phosphate buffered saline (PBS) containing 1% dimethyl sulfoxide (DMSO). Intravitreal injections were performed using AAV2 serotype only. WT and rd1 mice were injected with the RAR-reporter virus or the RARDN virus, at age 1-1.5 month-old. WT and s334ter rats were injected with the RAR-reporter virus at age 3-4 month-old. Final volume of injections was 1-1.5 μL for mice and 5 μL for rats.
Multi Electrode Array Recordings. Flat-mounted retina was placed ganglion cell layer down onto a 60-electrode Multi-Electrode Array (MEA 1060-2-BC, Multi-Channel Systems). After mounting the retina was left to dark adapt for 20 minutes under constant perfusion with oxygenated saline at 34° C. 300 μM QAQ at was applied for 30 min, followed by a 5 min wash. […]

Compound: CCN(Cc1ccccc1)c1ccc(/N=N/c2ccc(NC(=O)C[N+](CC)(CC)CC)cc2)cc1 [BENAQ, benzylethylamino-azobenzene-quaternary ammonium]
- Photoswitch Index (PI) of BENAQ ([1]; white light/darkness): 0.56±0.03

Compound: CCN(CC)c1ccc(C=O)cc1 [DEAB, diethylaminobenzaldehyde]
- Yo-Pro-1 labeling of rd1-RGCs, result in words [2]: significantly reduced the percentage of rd1-RGCs labeled with Yo-Pro-1
- percentage of YO-PRO-1 positive cells (fraction of RGC nuclei labeled) [2]: 19.77±2.32%
- percentage of YO-PRO-1 positive cells, retinaldehyde co-injected with DEAB ([3]; WT mice, co-injection with retinaldehyde, 3-7 days before imaging, mean±SEM): 7.65±1.34%
- percentage of YO-PRO-1 positive cells ([3]; WT mice, mean±SEM): 7.47±1.21%
- Yo-Pro-1 labeling of WT-RGCs, result in words [3]: caused no change in Yo-Pro-1 labeling

Compound: Cc1ccc(Cl)c(Nc2ccccc2C(=O)O)c1Cl [Meclofenamic acid]
- effect on RGC light responses [4]: augments RGC light responses by reducing hyperactivity

Compound: CC[N+](CC)(CC)CC(=O)Nc1ccc(N=Nc2ccc(NC(=O)C[N+](CC)(CC)CC)cc2)cc1 [QAQ, quaternary ammonium-azobenzene-quaternary ammonium]
- Photoswitch Index (PI) of QAQ ([1]; QAQ 300 μM, 380/500 nm): 0.63±0.12

Compound: CC1=C(/C=C/C(C)=C/C=C/C(C)=C/C=O)C(C)(C)CCC1 [Retinaldehyde, retinaldehyde]
- percentage of YO-PRO-1 positive cells ([3]; WT mice, mean±SEM): 14.6±2.29%
- Yo-Pro-1 labeling of WT-RGCs, result in words [3]: significantly increasing Yo-Pro-1 labeling above baseline

Compound: CC(C)=CCCC(C)=CC=O [citral]
- Yo-Pro-1 labeling of rd1-RGCs, result in words [2]: significantly reduced the percentage of rd1-RGCs labeled with Yo-Pro-1
- percentage of YO-PRO-1 positive cells (fraction of RGC nuclei labeled) [2]: 9.87±2.39%

Compound: Clc1cccc(C(c2ccc3[nH]cnc3c2)n2ccnc2)c1 (stereo not shown) [liarozole]
- percentage of YO-PRO-1 positive cells ([3]; WT mice, mean±SEM): 8.66±1.36%
- Yo-Pro-1 labeling of WT-RGCs, result in words [3]: had no effect by itself
- QAQ photosensitization of WT retina, in words ([5]; WT retina, 3-7 days after intravitreal injection): Neither ATRA nor liarozole alone enabled significant QAQ photosensitization
- Photoswitch Index (PI) with QAQ ([5]; WT retina, 3-7 days after intravitreal injection, QAQ 300 μM, mean±SEM): 0.27±0.13

Compound: TNP-ATP
- percentage of YO-PRO-1 positive cells, ATRA-induced labeling with blocker ([3]; WT mice injected with ATRA, TNP-ATP bath-applied ex vivo or BMS-493 co-injected, mean±SEM): 0.39±0.31%
- Photoswitch Index (PI) with QAQ, ATRA plus liarozole with TNP-ATP ([5]; WT retina injected with ATRA plus liarozole, TNP-ATP bath-loaded, mean±SEM): 0.19±0.14
- effect on QAQ photosensitization induced by ATRA plus liarozole, in words ([5]; WT retina, TNP-ATP bath-loaded): blocked by TNP-ATP
